Entries after “also recorded” stand apart in the source; their conditions may differ.
How the values were obtained:
[1] = Cysteine conjugates in mouse urine after oral gavage (LC/MS); assay type: in vivo; settings: oral gavage 200 mg/kg, urine collected in 24 h
Description: LC/MS analysis was carried out with a Thermo-Finnigan Spectra System, which consisted of an Accela high speed MS pump, an Accela refrigerated autosampler, and an LCQ Fleet ion trap mass detector (Thermo Electron, San Jose, Calif., United States of America) incorporated with an electrospray ionization (ESI) interface. A Gemini-NX C18 column (150 mm×4.6 mm i.d., 5 μm; Phenomenex, Torrance, Calif., United States of America) was used for separation at a flow rate of 0.3 mL/min. The column was eluted with 100% A (5% aqueous methanol with 0.2% formic acid) for 1 min, followed by linear increases in B (95% aqueous methanol with 0.2% formic acid) to 55% from 1 to 4 min, to 85% from 4 to 25 min, then to 100% B from 25 to 30 min, and then with 100% B from 30 to 35 min. The column was then re-equilibrated with 100% A for 5 min. The LC eluent was introduced into the ESI interface. The positive ion polarity mode was set for the ESI source with the voltage on the ESI interface maintained at approximately 4.6 kV. Nitrogen gas was used as the sheath gas and auxiliary gas. […] The mass range was measured from 100 to 800 m/z. […]
Enzymatic deconjugation of mouse urine was performed as described previously with slight modifications. […] The resulting suspension was centrifuged at 17,000 g for 5 min, and 10 μL of supernatant was analyzed directly by LC/MS.

heme oxygenase-1 (HO-1) = experiment: Western blotting of HO-1 expression in CCD 841 CoN cells; assay type: cell-based, human
Description: Human normal colonic epithelial cells (CCD 841 CoN) were grown in Eagle's Minimum Essential Medium with 10% fetal bovine serum and 1% penicillin/streptomycin, and maintained at 37° C. in a 100% humidified atmosphere of 5% CO2 and 95% air. Fresh growth medium was added to the cells every two days until confluent. Cells were planted in 145×20 mm flat-bottomed tissue culture dishes and growth to 70-80% confluence and then treated with compound 27 for various doses and time points. At the end of incubation period, cell lysates were prepared in ice-cold Cell Lysis Buffer (Cell Signaling, Danvers, Mass., United States of America) with 1% protease inhibitor cocktail and 1% phenylmethylsulfonyl fluoride (Sigma, St. Louis, Mo., United States of America). Protein concentrations were measured using BCA Protein Assay Kit (Thermo Scientific, Rockford, Ill., United States of America). […] The bound complexes were detected with SuperSignal Chemiluminescent Substract (Thermo Scientific, Rockford, Ill., United States of America). The immunoblot bands were quantified by densitometry analysis, and the ratio to β-actin was calculated and presented.

[2] = Biotransformation of xenobiotics in zebrafish embryos (LC/MS); assay type: in vivo; settings: 5 μM in incubation medium, 8 hpf to 24 hpf
Description: Fifty zebrafish embryos at the 8 hour-post-fertilization (hpf) stage were incubated at 28.5° C. in 0.3× Danieau's solution (19.3 mM NaCl, 0.23 mM KCl, 0.13 mM MgSO4, 0.2 mM Ca(NO3)2, 1.7 mM HEPES, pH 7.0) with or without 5 μM 18 and 25-27, respectively. At 24 hpf, embryos were dechorionated manually and the chorions were carefully removed one by one from the culture medium. The zebrafish embryos were harvested and kept at −80° C. till analyzed by LC/MS.
200 μL Sodium acetate buffer solution (pH 5.0) was added to 50 zebrafish embryos. Samples were homogenized for 90 s by an Omni Bead Ruptor Homogenizer (Kennesaw, Ga., United States of America). 10 μL 10% ascorbic acid and 300 μL sodium acetate buffer were added to the homogenates. The mixture was incubated in the presence of β-glucuronidase (250 U) and sulfatase (3 U) at 37° C. for 45 min, and then 600 μL MeOH with 1% acetic acid was added. The resulting mixture was vortexed for 30 s and then centrifuged at 17000 g for 10 min. The supernatant was removed and evaporated under a gentle stream of nitrogen. The residue was reconstituted in 150 μL 90% MeOH with 0.2% acetic acid (AA), and 10 μL was analyzed directly by LC/MS.
LC/MS analysis was carried out with a Thermo-Finnigan Spectra System, which consisted of an Accela high speed MS pump, an Accela refrigerated autosampler, and an LCQ Fleet ion trap mass detector (Thermo Electron, San Jose, Calif., United States of America) incorporated with an electrospray ionization (ESI) interface. A Gemini-NX C18 column (150 mm×4.6 mm i.d., 5 μm; Phenomenex, Torrance, Calif., United States of America) was used for separation at a flow rate of 0.3 mL/min. The column was eluted with 100% A (5% aqueous methanol with 0.2% formic acid) for 1 min, followed by linear increases in B (95% aqueous methanol with 0.2% formic acid) to 55% from 1 to 4 min, to 85% from 4 to 25 min, then to 100% B from 25 to 30 min, and then with 100% B from 30 to 35 min. The column was then re-equilibrated with 100% A for 5 min. The LC eluent was introduced into the ESI interface. The positive ion polarity mode was set for the ESI source with the voltage on the ESI interface maintained at approximately 4.6 kV. Nitrogen gas was used as the sheath gas and auxiliary gas. Optimized source parameters, including capillary temperature (260° C.), sheath gas flow rate (31 arbitrary units), auxiliary gas flow rate (16 units), tube lens (34 V), and capillary voltage 9 V, were tuned using authentic samples. The collision-induced dissociation (CID) was conducted with an isolation width 2 Da and normalized collision energy of 35 for MS^2. The mass range was measured from 100 to 800 m/z. Data acquisition was performed with Xcalibur version 2.0 (Thermo Electron, San Jose, Calif., United States of America).

**Q.** For CCCCCCCC(=O)/C=C/c1ccc(O)c(O)c1 [Compound 27], which “Cysteine conjugates (metabolites) detected in mouse urine” value [1] is on record?
**A.** conjugate 36 and its reduced form 36a, three additional conjugates 37, 37a, and 37b

**Q.** What about the “HO-1 protein expression, time dependence” value (heme oxygenase-1 (HO-1); CCD 841 CoN cells, 10 μM for 3, 6, 12 and 24 h, vs control, p<0.05 for all time points) of the same compound?
**A.** significantly increased HO-1 expression; also recorded: increased HO-1 expression in a time-dependent manner

**Q.** What about the “HO-1 protein expression, dose dependence” value (heme oxygenase-1 (HO-1); CCD 841 CoN cells, 5, 10 and 20 μM for 24 h, vs untreated control, p<0.05 for all concentrations) of the same compound?
**A.** significantly increased HO-1 protein expression; also recorded: increased HO-1 expression in a dose-dependent manner

**Q.** And the “Cysteine conjugates (metabolites) detected in zebrafish embryos” value [2]?
**A.** four cysteine conjugates 36, 36a, 37, and 37b

— patent US10363230B2, “6-shogaol derivatives and activities thereof” (North Carolina Agricultural and Technical State University, priority 2017, dated 2019)
